Reference: ChEMBL document CHEMBL1136245, “HIV-1 protease inhibitors with picomolar potency against PI-resistant HIV-1 by modification of the P1' substituent” (Bioorg Med Chem Lett, 2003)
pIC50: −log10 of the molar value. Values after ≈ are worked out from the molar mass of the structure shown.

Tests used:
[1] = tested on: MT4; test: Antiviral activity of compound against spread of wild type K-60C virus infection in MT-4 human T-lymphoid cells; type: functional; settings: read-out: CIC95
[2] = tested on: MT4; test: Antiviral activity of compound against spread of wild type Q-60C virus infection in MT-4 human T-lymphoid cells; type: functional; settings: read-out: CIC95
[3] = molecular target: T1, Human immunodeficiency virus type 1 protease (Human immunodeficiency virus 1, UniProt Q72874); test: Inhibitory activity of compound against HIV-1 protease in HIV-1 (V-18C) strain
[4] = molecular target: T1, Human immunodeficiency virus type 1 protease; test: Inhibitory activity of compound against HIV-1 protease in HIV-1 (K-60C) strain
[5] = molecular target: T1, Human immunodeficiency virus type 1 protease; test: Inhibitory activity of compound against HIV-1 protease in wild type NL4-3 virus
[6] = tested on: MT4; test: Antiviral activity of compound against spread of wild type V-18C virus infection in MT-4 human T-lymphoid cells; type: functional; settings: read-out: CIC95
[7] = Solubility of compound at pH 5.2; type: physicochemical; settings: buffer
[8] = tested on: MT4; test: Antiviral activity of compound against spread of wild type NL4-3 virus infection in MT-4 human T-lymphoid cells; type: functional; settings: read-out: CIC95
[9] = Cmax of compound after both po and iv administration at a dose of 5 mg/kg and 2 mg/kg resp in dog; type: ADME, organism-based, Canis lupus familiaris; settings: in vivo
[10] = molecular target: T2, Cytochrome P450 2D6 (Homo sapiens, UniProt P10635); test: (§1) Inhibition of human liver microsome Cytochrome P450 2D6; type: ADME, microsomes
T2 sequence (P10635 whole entry): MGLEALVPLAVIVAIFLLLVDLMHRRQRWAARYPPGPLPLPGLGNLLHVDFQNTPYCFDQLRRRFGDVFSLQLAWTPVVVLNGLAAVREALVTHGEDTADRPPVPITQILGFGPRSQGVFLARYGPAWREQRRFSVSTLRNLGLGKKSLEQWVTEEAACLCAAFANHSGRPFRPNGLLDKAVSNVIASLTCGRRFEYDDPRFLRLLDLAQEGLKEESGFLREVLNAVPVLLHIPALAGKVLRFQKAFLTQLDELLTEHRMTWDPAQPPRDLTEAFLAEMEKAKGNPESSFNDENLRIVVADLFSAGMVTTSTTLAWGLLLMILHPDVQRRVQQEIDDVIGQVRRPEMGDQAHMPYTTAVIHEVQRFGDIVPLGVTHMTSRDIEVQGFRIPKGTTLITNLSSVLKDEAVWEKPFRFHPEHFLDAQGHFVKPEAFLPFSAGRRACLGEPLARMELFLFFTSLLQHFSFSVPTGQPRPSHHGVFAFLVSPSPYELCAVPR

[11] = Area under curve of compound after both po and iv administration at a dose of 5 mg/kg and 2 mg/kg resp in dog; type: ADME, organism-based, Canis lupus familiaris; settings: in vivo
[12] = Clearance of compound after both po and iv administration at a dose of 5 mg/kg and 2 mg/kg resp in dog; type: ADME, organism-based, Canis lupus familiaris; settings: in vivo
[13] = Half life of compound after both po and iv administration at a dose of 5 mg/kg and 2 mg/kg resp in dog; type: ADME, organism-based, Canis lupus familiaris; settings: in vivo
[14] = molecular target: Cytochrome P450 3A4 (Homo sapiens, UniProt P08684); test: Inhibition of human liver microsome Cytochrome P450 3A4; type: ADME, microsomes
Sequence of Cytochrome P450 3A4 (P08684 whole entry): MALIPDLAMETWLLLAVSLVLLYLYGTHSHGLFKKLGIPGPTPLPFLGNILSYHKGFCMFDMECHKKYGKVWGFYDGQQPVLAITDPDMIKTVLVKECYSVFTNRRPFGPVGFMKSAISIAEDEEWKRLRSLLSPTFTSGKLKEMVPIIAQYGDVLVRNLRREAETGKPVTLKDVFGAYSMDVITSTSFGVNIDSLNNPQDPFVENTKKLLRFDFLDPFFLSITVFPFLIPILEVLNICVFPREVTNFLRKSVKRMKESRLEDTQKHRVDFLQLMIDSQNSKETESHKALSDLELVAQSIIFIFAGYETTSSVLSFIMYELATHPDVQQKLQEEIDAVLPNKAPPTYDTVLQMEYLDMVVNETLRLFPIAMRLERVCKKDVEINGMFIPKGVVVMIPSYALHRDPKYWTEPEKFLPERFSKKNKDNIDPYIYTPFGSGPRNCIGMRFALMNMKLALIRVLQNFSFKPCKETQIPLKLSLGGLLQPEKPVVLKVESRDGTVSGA

[15] = molecular target: T1, Human immunodeficiency virus type 1 protease; test: Inhibitory activity of compound against HIV-1 protease in HIV-1 (Q-60C) strain
[16] = Oral bioavailability in dog (dose 5 mg/kg p.o. and 2 mg/kg i.v.); type: ADME, organism-based, Canis lupus familiaris; settings: in vivo
[17] = molecular target: T3, Cytochrome P450 2C9 (Homo sapiens, UniProt P11712); test: Inhibition of human liver microsome Cytochrome P450 2C9; type: ADME, microsomes
T3 sequence (P11712 whole entry): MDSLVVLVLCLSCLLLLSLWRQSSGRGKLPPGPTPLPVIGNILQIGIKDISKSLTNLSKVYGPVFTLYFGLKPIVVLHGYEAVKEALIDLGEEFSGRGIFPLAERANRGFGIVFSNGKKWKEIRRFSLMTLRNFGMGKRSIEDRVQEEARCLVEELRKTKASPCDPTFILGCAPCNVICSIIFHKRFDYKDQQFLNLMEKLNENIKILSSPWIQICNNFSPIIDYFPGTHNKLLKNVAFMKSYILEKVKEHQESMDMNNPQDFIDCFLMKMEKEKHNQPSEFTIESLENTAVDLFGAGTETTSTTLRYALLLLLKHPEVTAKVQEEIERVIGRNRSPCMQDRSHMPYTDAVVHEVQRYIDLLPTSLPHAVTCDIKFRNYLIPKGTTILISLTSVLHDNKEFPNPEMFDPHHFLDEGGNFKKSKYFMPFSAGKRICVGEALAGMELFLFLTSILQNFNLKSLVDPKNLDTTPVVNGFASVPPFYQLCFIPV

[18] = molecular target: T2, Cytochrome P450 2D6; test: as §1; type: ADME
[19] = molecular target: T3, Cytochrome P450 2C9; test: Inhibition of huamn liver microsome Cytochrome P450 2C9; type: ADME, microsomes

| Structure (SMILES) | IC95 [1] | IC95 [2] | pIC50 [3] | pIC50 [4] | pIC50 [5] | IC95 [6] | solubility [7] | IC95 [8] | Cmax [9] | pIC50 [10] | AUC [11] | clearance [12] | half-life [13] | pIC50 [14] | pIC50 [15] | bioavailability [16] | pIC50 [17] | pIC50 [18] | pIC50 [19] |
| --- | --- | --- | --- | --- | --- | --- | --- | --- | --- | --- | --- | --- | --- | --- | --- | --- | --- | --- | --- |
| O=C(N[C@H]1c2ccccc2OC[C@H]1O)[C@H](Cc1ccncc1)C[C@H](O)CN1CCN(Cc2cc3cccc(Cl)c3o2)C[C@H]1C(=O)NCC(F)(F)F | 62 nM | 125 nM | 9.85 | 9.04 | 10.52 | ≤ 8 nM | < 10 µg/mL | ≤ 8 nM |  |  |  |  |  |  |  |  |  |  |  |
| O=C(N[C@H]1c2ccccc2OC[C@H]1O)[C@H](Cc1ccncc1)C[C@H](O)CN1CCN(Cc2ccc(-c3ccccc3)o2)C[C@H]1C(=O)NCC(F)(F)F | ≤ 8 nM | 31 nM | 9.47 | 9.96 | 10.40 | 31 nM | 40 µg/mL (≈ 55.4 µM) | 15 nM | 210 nM | 4.83 | 0.16 µM·h | 17.4 mL/min/kg | 1.07 h | 5.82 | 9.70 | 2% |  |  |  |
| O=C(N[C@H]1c2ccccc2OC[C@H]1O)[C@H](Cc1cccnc1)C[C@H](O)CN1CCN(Cc2cc3cccc(Cl)c3o2)C[C@H]1C(=O)NCC(F)(F)F | 31 nM | 31 nM | 9.92 |  | 10.70 | ≤ 8 nM | 10 µg/mL (≈ 13.7 µM) | 10 nM |  |  |  |  |  | 6.30 |  |  | 4.56 | 5.06 |  |
| O=C(N[C@H]1c2ccccc2OC[C@H]1O)[C@H](Cc1cccnc1)C[C@H](O)CN1CCN(Cc2ccc(-c3ccccc3)o2)C[C@H]1C(=O)NCC(F)(F)F | ≤ 8 nM | ≤ 8 nM | 9.82 | 10.22 | 10.70 | ≤ 8 nM | 10 µg/mL (≈ 13.9 µM) | ≤ 8 nM | 110 nM | 4.81 | 0.08 µM·h | 20.5 mL/min/kg | 1.23 h | 6.37 | 10.15 | 1% |  |  | 4.08 |
| O=C(N[C@H]1c2ccccc2OC[C@H]1O)[C@H](Cc1cccnc1)C[C@H](O)CN1CCN(Cc2cc3ccccc3o2)C[C@H]1C(=O)NCC(F)(F)F | 125 nM | 125 nM | 8.89 | 8.43 | 10.40 | 31 nM | 310 µg/mL (≈ 446 µM) | 15 nM | 3360 nM | 4.72 | 1.94 µM·h | 15 mL/min/kg | 0.867 h | 6.32 | 8.57 | 24% |  |  | 4.31 |
| CC(C)(C)NC(=O)[C@@H]1CN(Cc2cccnc2)CCN1C[C@@H](O)C[C@@H](Cc1ccccc1)C(=O)N[C@H]1c2ccccc2C[C@H]1O | > 1000 nM | > 1000 nM |  |  |  | > 1000 nM |  | 50 nM |  |  |  |  |  |  |  |  |  |  |  |
| O=C(N[C@H]1c2ccccc2OC[C@H]1O)[C@H](Cc1ccccc1)C[C@H](O)CN1CCN(Cc2ccc(-c3ccncc3)o2)C[C@H]1C(=O)NCC(F)(F)F | 15 nM | 31 nM | 8.89 | 9.22 |  | 31 nM | 670 µg/mL (≈ 928 µM) | ≤ 8 nM |  |  | 2.58 µM·h | 24.5 mL/min/kg | 1 h |  | 9.10 |  |  |  |  |
| O=C(N[C@H]1c2ccccc2OC[C@H]1O)[C@H](Cc1ccncc1)C[C@H](O)CN1CCN(Cc2cc3ccccc3o2)C[C@H]1C(=O)NCC(F)(F)F |  | 250 nM | 8.66 | 8.00 | 10.00 |  | 280 µg/mL (≈ 402 µM) | 15 nM | 380 nM | 5.44 | 0.22 µM·h | 22.5 mL/min/kg | 1.7 h | 5.66 |  | 4% |  |  |  |
